Test system: T1, TtBgl3
T1 construct: calculated 97 kDa; primer-encoded N-terminus MSRDFL, C-terminus FTWNGV; GH3, GH3_C and Fn3-like domains
Assay: release of 4-nitrophenol at […] nm, Lineweaver-Burk
Type: biochemical, Trametes trogii
Settings: 50°C, pH 5.5 (methods: phosphate citrate buffer 200 mM, pH 5.0, 55°C)

Km: 550 µM
Compound: O=[N+]([O-])c1ccc(O[C@@H]2O[C@H](CO)[C@@H](O)[C@H](O)[C@H]2O)cc1 [4-nitrophenyl β-D-glucopyranoside]

Reference: PMC9158485, “Highly Efficient Biotransformation of Phenolic Glycosides Using a Recombinant β-Glucosidase From White Rot Fungus Trametes trogii” (Frontiers in Microbiology, 2022)
